Data reported in publication PMC11449324, “Functional comparison of human and murine equilibrative nucleobase transporter 1” (PLOS ONE, 2024).
Like-named read-outs stand apart in the source and are kept apart here.

What was measured:
[1] = system: MOLT-4 cells; assay: MTT cell viability assay, MOLT-4; format: cell-based, human; settings: for EC50: Homo sapiens, MOLT-4, 48 h, read-out: first-phase EC50 cell viability
Protocol: (§1) Transfected-HEK293, MOLT-4, and L1210 cells were seeded into 24-well plates at a density of 1.1x10^5 cells per well in complete culture medium. […] Medium containing no cells was used to determine spontaneous MTT reduction (background). In transfected-HEK293 cells, media was removed via a vacuum-powered aspirator and replaced with 150 μL of Dulbecco’s phosphate buffered saline (DPBS—137 mM NaCl, 2.7 mM KCl, 6.3 mM Na2HPO4, 1.5 mM KH2PO4, 0.5 mM MgCl2, 0.9 mM CaCl2, pH 7.4) containing MTT (1 mg/mL) for 90 minutes at 37°C. In MOLT-4 and L1210, cell suspension was transferred to 1.5 mL microcentrifuge tubes and centrifuged for 10 minutes at 3000 rcf. Following centrifugation, media was removed via gentle pipetting and replaced with 150 μL of DPBS containing MTT (1 mg/mL) for 90 minutes at 37°C. Microcentrifuge tubes were centrifuged again for 15 minutes at 23,500 rcf, and then DPBS containing MTT was removed via a vacuum-powered aspirator. The resultant formazan crystals were solubilized in 500 μL of DMSO and transferred to a 96-well plate in 200 μL duplicates. Absorbance was measured at 570 nm, in a SpectraMax® i3x Multi-Mode Detection Platform (Molecular Devices, San Jose, CA). After background subtraction, % cell viability was calculated as the ratio of absorbance in the presence of test compound to that measured with vehicle alone (X 100).

[2] = system: HEK293-hSLC43A3 cells; assay: MTT cell viability assay, HEK293-hSLC43A3; format: cell-based, human
Protocol: as §1

[3] = molecular target: T1, hENBT1 (SLC43A3-encoded human ENBT1) (Homo sapiens, UniProt Q8NBI5); assay: Radiolabelled substrate uptake (oil-stop, 2 s) in HEK293-hSLC43A3 cells; format: cell-based
T1 construct: Oligonucleotides corresponding to the coding region of SLC43A3 (NM_001278201) or slc43a3 (NM_021398); expressed in transfected cells; HEK293-hSLC43A3
T1 sequence (Q8NBI5 1-491): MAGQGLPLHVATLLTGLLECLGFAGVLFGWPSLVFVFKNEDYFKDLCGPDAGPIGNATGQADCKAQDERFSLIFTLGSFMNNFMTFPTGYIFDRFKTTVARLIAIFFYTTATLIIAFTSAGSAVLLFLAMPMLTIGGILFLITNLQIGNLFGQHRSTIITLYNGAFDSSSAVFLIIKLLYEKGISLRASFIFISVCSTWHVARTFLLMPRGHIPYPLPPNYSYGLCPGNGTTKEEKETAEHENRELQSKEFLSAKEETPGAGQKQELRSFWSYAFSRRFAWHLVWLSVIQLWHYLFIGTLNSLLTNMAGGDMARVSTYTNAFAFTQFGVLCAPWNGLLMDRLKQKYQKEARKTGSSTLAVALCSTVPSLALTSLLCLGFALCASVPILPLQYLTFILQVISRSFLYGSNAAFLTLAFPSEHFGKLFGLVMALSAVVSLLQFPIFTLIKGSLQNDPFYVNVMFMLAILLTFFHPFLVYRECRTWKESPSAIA
Protocol: Harvested cells were suspended in nominally sodium-free N-methyl-D-glucamine (NMG) buffer (140 mM NMG, 5 mM KCl, 4.2 mM KHCO3, 0.36 mM K2HPO4, 0.44 mM KH2PO4, 0.5 mM MgCl2, 1.3 mM CaCl2, 10 mM HEPES, pH 7.4), to minimize potential contribution of sodium-dependent concentrative nucleoside transporter-mediated uptake. Additionally, cells were incubated for 15 minutes at room temperature with 10 μM dipyridamole (DY), an equilibrative nucleoside transporter (ENT) inhibitor, to block equilibrative nucleoside transporter–mediated uptake. The substrate uptake assay was initiated by adding 250 μL cell suspension to 250 μL [^3H] labeled substrate, layered over 21:4 silicone:mineral oil (200 μL) in 1.5 mL microcentrifuge tubes (conducted at room temperature). The uptake reaction was terminated after 2 seconds by centrifugation of the cells through the oil layer at ~10,000 g. […] The resulting cell pellet was digested in 250 μL 1 M NaOH overnight (~16 hours), with 220 μL aliquots of digested cells assessed for radioactive content using standard liquid scintillation counting techniques in a Beckman Coulter LS6500 scintillation system (Brea, CA).
In transfected-HEK293 cell lines, total uptake was defined as uptake of radiolabeled substrate in cells overexpressing recombinant hENBT1 or mENBT1. […] ENBT1-mediated uptake was calculated as total uptake minus the non-mediated uptake. […]

[4] = system: L1210 cells; assay: MTT cell viability assay, L1210; format: cell-based, murine; settings: Mus musculus, L1210, 48 h, single-phase curve
Protocol: as §1

[5] = system: HEK293-EV cells; assay: MTT cell viability assay, HEK293-EV; format: cell-based, human; settings: Homo sapiens, 48 h, first-phase EC50 where biphasic
Protocol: as §1

[6] = system: HEK293-mslc43a3 cells; assay: MTT cell viability assay, HEK293-mslc43a3; format: cell-based, human
Protocol: as §1

EC50 ([1]; MTT, biphasic curve (Fig 10A)): 700 ± 200 nM
EC50 ([1]; in absence of DY, solvent DMSO present): 500 ± 100 nM
6-MP Km relative to adenine Km [3]: 3 fold
6-MP Vmax relative to adenine Vmax [3]: 3 fold
EC50 [4]: 600 ± 200 nM
SMILES: Sc1ncnc2nc[nH]c12 [6-MP, 6-Mercaptopurine]
increase in 6-MP sensitivity on co-treatment with DY ([1]; MOLT-4, 6-MP + DY vs 6-MP + solvent): 2 fold
shift in EC50 (increased sensitivity) relative to HEK293-EV cells ([2]; HEK293-hSLC43A3 vs HEK293-EV): 19 fold
EC50 ([2]; Homo sapiens, HEK293-hSLC43A3, 48 h, MTT, first-phase EC50 where biphasic): 990 ± 90 nM
EC50 [5]: 18800 ± 510 nM
shift in EC50 (increased sensitivity) relative to HEK293-EV cells ([6]; HEK293-mslc43a3 vs HEK293-EV): 19 fold
EC50 ([6]; Homo sapiens, HEK293-mslc43a3, 48 h, MTT, first-phase EC50 where biphasic): 960 ± 280 nM
